Values after ≈ are worked out from the molar mass of the structure shown.
Columns and labels:
Mus musculus [1] = species on record: Mus musculus; test: animal or person; type: functional
[2] = target: Mitogen-activated protein kinase 14 (Homo sapiens, UniProt Q16539)
Mus musculus [3] = species on record: Mus musculus; test: animal or person; type: functional; remark: listed apart in the source
Homo sapiens = species on record: Homo sapiens; test: tissue or blood
[4] = Area under plasma-time concentration curve when administered at 1 mg/kg dose; type: ADME, organism-based; design: dose 1 mg/kg; conditions: rat
cells = conditions: Homo sapiens
Mus musculus [5] = species on record: Mus musculus; test: animal or person; type: functional; remark: listed apart in the source
[6] = Volume distribution after iv administration of 1 mg/kg; type: ADME, organism-based; design: dose 1 mg/kg, route intravenous; conditions: rat, in vivo, read-out: Distribution
[7] = Protein binding was determined in human; type: ADME
[8] = Solubility was determined; type: physicochemical
[9] = Oral bioavailability at 3 mg/kg; type: ADME, organism-based; conditions: rat, in vivo, read-out: Bioavailabiility
[10] = Log D value at pH 7.4; type: physicochemical; conditions: buffer

Sequence of Mitogen-activated protein kinase 14 (Q16539 whole entry): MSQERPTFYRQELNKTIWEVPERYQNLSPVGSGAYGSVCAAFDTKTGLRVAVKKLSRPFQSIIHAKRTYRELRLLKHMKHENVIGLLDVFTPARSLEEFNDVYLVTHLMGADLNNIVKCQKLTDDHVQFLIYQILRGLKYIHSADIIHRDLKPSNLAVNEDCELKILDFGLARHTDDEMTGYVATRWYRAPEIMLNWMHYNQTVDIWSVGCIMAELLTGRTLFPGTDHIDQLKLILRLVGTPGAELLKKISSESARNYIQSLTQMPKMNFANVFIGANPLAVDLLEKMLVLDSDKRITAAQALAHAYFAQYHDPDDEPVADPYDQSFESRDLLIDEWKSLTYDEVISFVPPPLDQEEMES

For `Cc1ccc(NC(=O)c2cc(F)cc(N3CCOCC3)c2)cc1NC(=O)c1ccc(OCc2cscn2)cc1`, the inhibition in vivo at 10 mg/kg (Mus musculus [1]) was 37%, the IC50 [2] was 10 nM and the inhibition in vivo at 30 mg/kg (Mus musculus [3]) was 81%. It also gave an IC50 (Homo sapiens) of 2500 nM and an AUC [4] of 0.71 µM·h.

Work on `Cc1ccc(NC(=O)c2cccc(N3CCOCC3)c2)cc1NC(=O)c1ccc(OCc2ccccn2)cc1` yielded an inhibition in vivo at 30 mg/kg (Mus musculus [3]; dose 30 mg/kg) of 59% and an AUC [4] of 1.38 µM·h.

In the case of `Cc1ccc(NC(=O)c2cc(N3CCOCC3)cc(C(F)(F)F)c2)cc1NC(=O)c1ccc(OCc2ccccn2)cc1`, the inhibition in vivo at 10 mg/kg (Mus musculus [1]; dose 10 mg/kg) is reported as 4%, the IC50 [2] is reported as 20 nM and the inhibition in vivo at 30 mg/kg (Mus musculus [3]; dose 30 mg/kg) is reported as 55%. For the same compound, the IC50 (Homo sapiens) was 10200 nM and the AUC [4] was 0.04 µM·h.

`COc1cc(C(=O)Nc2cc(NC(=O)c3cccc(N(C)C)c3)ccc2C)cc(OC)c1OC` showed an IC50 (cells) of 3900 nM and an IC50 [2] of 230 nM.

`COc1ccc(C(=O)Nc2cccc(NC(=O)c3cccc(N(C)C)c3)c2)cc1OC` gave an IC50 [2] of over 20000 nM.

In the case of `Cc1ccc(NC(=O)c2cccc(N3CCOCC3)c2)cc1NC(=O)c1ccc(OCc2ccncc2)cc1`, the inhibition in vivo at 10 mg/kg (Mus musculus [1]; dose 10 mg/kg) is reported as 43%, the IC50 [2] is reported as 20 nM and the inhibition in vivo at 3 mg/kg (Mus musculus [5]; dose 3 mg/kg) is reported as 14%. For the same compound, the inhibition in vivo at 30 mg/kg (Mus musculus [3]; dose 30 mg/kg) was 75%, the IC50 (Homo sapiens) was 3300 nM and the AUC [4] was 0.13 µM·h.

`C[S+]([O-])c1ccc(-c2nc(-c3ccc(F)cc3)c(-c3ccncc3)[nH]2)cc1` (centres undefined) [SB-203580] showed an inhibition in vivo at 10 mg/kg (Mus musculus [1]) of 47%, an inhibition in vivo at 3 mg/kg (Mus musculus [5]) of 0% and an inhibition in vivo at 30 mg/kg (Mus musculus [3]) of 50%.

`Cc1ccc(NC(=O)c2ccnc(N3CCOCC3)c2)cc1NC(=O)c1ccc(OCc2ccccn2)cc1` gave a Vd [6] of 1.6 L/kg, a Binding [7] of 99.89% and an IC50 [2] of 10 nM. The solubility [8] was under 1 µM, the bioavailability [9] was 46% and the IC50 (Homo sapiens) was 2800 nM.

In the case of `COc1ccc(C(=O)Nc2cc(NC(=O)c3cccc(N(C)C)c3)ccc2F)cc1OC`, the IC50 (cells) is reported as 22000 nM and the IC50 [2] is reported as 1900 nM.

`COc1ccc(C(=O)Nc2cc(NC(=O)c3cccc(N(C)C)c3)ccc2Br)cc1OC` gave an IC50 (cells) of 9500 nM and an IC50 [2] of 340 nM.

For `COCCOc1ccc(C(=O)Nc2cc(NC(=O)c3cccc(N(C)C)c3)ccc2C)cc1`, the IC50 (cells) was 3400 nM and the IC50 [2] was 270 nM.

Compound `COc1ccc(C(=O)Nc2cc(NC(=O)c3cccc(N(C)C)c3)ccc2C)c(OC)c1` has an IC50 (cells) of over 50000 nM and an IC50 [2] of 100 nM.

Work on `COc1ccc(C(=O)Nc2ccc(C)c(NC(=O)c3cccc(N(C)C)c3)c2)cc1OC` yielded an IC50 [2] of over 20000 nM.

`COc1ccc(C(=O)Nc2cc(NC(=O)c3cccc(N(C)C)c3)ccc2C)cc1OC` gave an IC50 (cells) of 6400 nM and an IC50 [2] of 180 nM.

`Cc1ccc(NC(=O)c2cccc(N3CCOCC3)c2)cc1NC(=O)c1ccc(OCc2ccccc2)cc1` gave an IC50 [2] of 30 nM and an IC50 (Homo sapiens) of 40000 nM.

In the case of `Cc1ccc(NC(=O)c2cccc(N3CCOCC3)c2)cc1NC(=O)c1ccc(OCc2cccnc2)cc1`, the IC50 [2] is reported as 90 nM and the IC50 (Homo sapiens) is reported as 14700 nM.

In the case of `CCOc1ccc(C(=O)Nc2cc(NC(=O)c3cccc(N(C)C)c3)ccc2C)cc1`, the IC50 (cells) is reported as 7000 nM and the IC50 [2] is reported as 60 nM.

With `Cc1ccc(NC(=O)c2cc(F)cc(N3CCOCC3)c2)cc1NC(=O)c1ccc(OCc2ccccn2)cc1` the IC50 [2] was 60 nM, the inhibition in vivo at 30 mg/kg (Mus musculus [3]; dose 30 mg/kg) was 43% and the IC50 (Homo sapiens) was 11200 nM. For the same compound, the AUC [4] was 0.13 µM·h.

Work on `Cc1ccc(NC(=O)c2cccc(N3CCOCC3)c2)cc1NC(=O)c1ccc(OCc2cscn2)cc1` yielded an inhibition in vivo at 10 mg/kg (Mus musculus [1]) of 44%, an inhibition in vivo at 3 mg/kg (Mus musculus [5]) of 28% and an inhibition in vivo at 30 mg/kg (Mus musculus [3]) of 56%. The AUC [4] was under 0.12 µM·h.

For `CCOc1ccc(C(=O)Nc2cc(NC(=O)c3cccc(N(C)C)c3)ccc2C)cc1OCC`, the IC50 (cells) was 4500 nM and the IC50 [2] was 50 nM.

Compound `Cc1nc(COc2ccc(C(=O)Nc3cc(NC(=O)c4cccc(N5CCOCC5)c4)ccc3C)cc2)cs1` has an inhibition in vivo at 10 mg/kg (Mus musculus [1]; dose 10 mg/kg) of 44%, an IC50 [2] of 20 nM and an inhibition in vivo at 3 mg/kg (Mus musculus [5]; dose 3 mg/kg) of 33%. For the same compound, the inhibition in vivo at 30 mg/kg (Mus musculus [3]; dose 30 mg/kg) was 71%, the IC50 (Homo sapiens) was 14600 nM and the AUC [4] was 2.03 µM·h.

For `Cc1ccc(NC(=O)c2cc(F)cc(N3CCCC3)c2)cc1NC(=O)c1ccc(OCc2ccccn2)cc1`, the inhibition in vivo at 10 mg/kg (Mus musculus [1]) was 3%, the inhibition in vivo at 30 mg/kg (Mus musculus [3]) was 7% and the AUC [4] was 0.07 µM·h.

`COc1ccc(C(=O)Nc2cc(NC(=O)c3cccc(N(C)C)c3)ccc2Cl)cc1OC` showed an IC50 (cells) of 6400 nM and an IC50 [2] of 220 nM.

`COc1ccc(C(=O)N(C)c2cc(NC(=O)c3cccc(N(C)C)c3)ccc2C)cc1OC` gave an IC50 [2] of over 20000 nM.

Work on `COc1ccc(C(=O)Nc2cc(NC(=O)c3cccc(N(C)C)c3)ccc2C)cc1` yielded an IC50 (cells) of over 50000 nM and an IC50 [2] of 180 nM.

With `CCOCCOc1ccc(C(=O)Nc2cc(NC(=O)c3cccc(N(C)C)c3)ccc2C)cc1` the IC50 (cells) was 9500 nM and the IC50 [2] was 310 nM.

`Cc1nc(COc2ccc(C(=O)Nc3cc(NC(=O)c4cc(F)cc(N5CCOCC5)c4)ccc3C)cc2)cs1` gave an inhibition in vivo at 10 mg/kg (Mus musculus [1]; dose 10 mg/kg) of 27%, an IC50 [2] of 90 nM and an inhibition in vivo at 3 mg/kg (Mus musculus [5]; dose 3 mg/kg) of 0%. It also gave an inhibition in vivo at 30 mg/kg (Mus musculus [3]; dose 30 mg/kg) of 35%, an IC50 (Homo sapiens) of 2800 nM and an AUC [4] of 0.73 µM·h.

With `Cc1ccc(NC(=O)c2cccc(N(C)C)c2)cc1NC(=O)c1ccc(O)cc1` the Binding [7] was 99.7%, the IC50 (cells) was over 50000 nM and the IC50 [2] was 180 nM. It also gave a solubility [8] of 10 µM (≈ 3.89 µg/mL) and a logD [10] of 2.7.

In the case of `Cc1ccc(NC(=O)c2cc(F)cc(N3CCOCC3)c2)cc1NC(=O)c1ccc(OCc2ccncc2)cc1`, the inhibition in vivo at 10 mg/kg (Mus musculus [1]; dose 10 mg/kg) is reported as 24%, the IC50 [2] is reported as 10 nM and the inhibition in vivo at 30 mg/kg (Mus musculus [3]; dose 30 mg/kg) is reported as 40%. For the same compound, the IC50 (Homo sapiens) was 3400 nM and the AUC [4] was under 0.02 µM·h.

Source: ChEMBL document CHEMBL1137999, “A novel series of p38 MAP kinase inhibitors for the potential treatment of rheumatoid arthritis” (Bioorg Med Chem Lett, 2004)
